Reference: PMC5651824, “Membrane binding of the insertion sequence of Proteus vulgaris L-amino acid deaminase stabilizes protein structure and increases catalytic activity” (Scientific Reports, 2017)

T1: ΔN-pvLAAD (Proteus vulgaris, UniProt Q9LCB2)
T1 construct: gene LAD; N-terminal Tat peptide truncated, residues 30-471; recombinant in E. coli M15, Ni-NTA (His tag) and size exclusion
T1 sequence (Q9LCB2 30-471): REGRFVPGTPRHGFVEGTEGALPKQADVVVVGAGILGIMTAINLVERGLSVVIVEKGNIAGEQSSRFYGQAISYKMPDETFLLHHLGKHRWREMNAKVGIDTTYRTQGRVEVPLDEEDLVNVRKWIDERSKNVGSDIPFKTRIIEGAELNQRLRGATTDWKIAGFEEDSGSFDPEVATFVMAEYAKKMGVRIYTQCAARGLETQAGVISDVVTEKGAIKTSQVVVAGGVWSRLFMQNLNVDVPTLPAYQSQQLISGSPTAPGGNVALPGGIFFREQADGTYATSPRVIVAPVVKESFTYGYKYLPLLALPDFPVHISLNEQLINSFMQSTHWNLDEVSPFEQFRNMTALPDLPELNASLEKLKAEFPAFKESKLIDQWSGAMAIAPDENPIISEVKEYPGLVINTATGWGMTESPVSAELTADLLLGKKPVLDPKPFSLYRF


Key:
[1] = molecular target: T1, ΔN-pvLAAD; test: phenylpyruvate formation, absorbance at […] nm; assay type: biochemical; details: without membrane; 25 mM substrate; 50 mM potassium phosphate pH 7.5; 25 °C; 10 µM enzyme
[2] = substrate: N[C@@H](Cc1ccccc1)C(=O)O; test: purified protein; assay type: biochemical, Proteus vulgaris; details: without membrane, 50 mM potassium phosphate pH 7.5, 37 °C, 5 µM enzyme, 5 min

| Molecule | phenylpyruvate formation, absorbance at 321 nm [1] | Km [2] [mM] |
| --- | --- | --- |
| N[C@@H](Cc1ccccc1)C(=O)O [L-phenylalanine] | does not affect the catalytic activity of pvLAAD in solution |  |
| FL-pvLAAD (Proteus vulgaris) (protein, full-length with non-cleaved N-terminal Tat peptide (ends at residue 471); recombinant in E. coli M15, Ni-NTA (His tag) and size exclusion) MAISRRKFIIGGTVVAVAAGAGILTPMLTREGRFVPGTPRHGFVEGTEGALPKQADVVVVGAGILGIMTAINLVERGLSVVIVEKGNIAGEQSSRFYGQAISYKMPDETFLLHHLGKHRWREMNAKVGIDTTYRTQGRVEVPLDEEDLVNVRKWIDERSKNVGSDIPFKTRIIEGAELNQRLRGATTDWKIAGFEEDSGSFDPEVATFVMAEYAKKMGVRIYTQCAARGLETQAGVISDVVTEKGAIKTSQVVVAGGVWSRLFMQNLNVDVPTLPAYQSQQLISGSPTAPGGNVALPGGIFFREQADGTYATSPRVIVAPVVKESFTYGYKYLPLLALPDFPVHISLNEQLINSFMQSTHWNLDEVSPFEQFRNMTALPDLPELNASLEKLKAEFPAFKESKLIDQWSGAMAIAPDENPIISEVKEYPGLVINTATGWGMTESPVSAELTADLLLGKKPVLDPKPFSLYRF |  | 12.56 ± 3.19 |
